# From US12350308B2, “Phosphorylcholine conjugates and uses thereof” (TPCERA LTD., priority 2013, dated 2025)
# *1 amine or outer side, *2 acyl side, *3 side chain or, on linkers, in order; H or OH if unused. Where a SMILES comes first, the peptide text is derived from it. [ ]: non-standard residue; d: D form. X1 = C[N+](C)(C)CCOP(=O)([O-])Oc1ccc(N=Nc2cc(C[C@H](N[*:1])C(=O)[*:2])ccc2O)cc1
# How the values were obtained:
# male C57BL/6 mice = assay: DSS induced acute colitis in mice; type: in vivo
# Procedure: The effect of PC-tuftsin derivative (SEQ ID NO: 25) on colitis development was determined in a mouse model subjected to induction of acute colitis by dextran sulfate sodium (DSS) treatment. Specifically, induction of colitis was carried out in male C57BL/6 mice (“colitis mice”) by supplementing the drinking water (2.5% wt/v) for five days with DSS (mol. wt. 36,000-50,000).
# Two groups of mice were fed daily via oral ingestion using a feeding-needle, with PC-tuftsin derivative at a concentration of 500 μg/0.1 ml per mouse (treatment; n=10), or PBS (control; n=10). These compounds were given during 11 days starting two days before DSS administration.
# Assessment of colitis development was performed by monitoring body weight, rectal bleeding, stool consistency, and survival every second day. Intestinal bleeding was followed by Hemoccult test and observation of bleeding signs on the anus or gross bleeding. The daily disease activity index (DAI) was calculated by grading on a scale of zero to four the following parameters: change in weight (0, <1%; 1, 1-5%; 2, 5-10%; 3, 10— 15%; and 4, >15%), intestinal bleeding (0, negative; 4, positive), and stool consistency (0, normal; 2, loose stools; 4, diarrhea). The combined scores were then divided by three to obtain the final disease activity index. Ten days following disease induction, mice were sacrificed and the large intestine was collected and evaluated for colon length and microscopic colonic damage. For microscopic scoring, the proximal, medial, and distal portions of the colon and the cecum were fixed in 10% phosphate-buffered formalin. Paraffin-embedded sections were stained with H&E. The degree of histological damage and inflammation was graded in a blinded fashion by an expert pathologist
# [1] = tested on: CD4+CD25+FOXP3+ Treg cells; assay: Treg expansion in splenocytes of mice with established CIA (FACS); type: in vivo; conditions: isolated splenocytes; PBS 1.4%
# Text: The frequency of CD4+CD25+FOXP3+ Treg cells subset in isolated splenocytes from mice treated with TPC, PBS, TD (SEQ ID NO: 25), PC, TD+PC or untreated is elucidated in FIGS. 33A and 33B. […] Representative data of the CD4+CD25+FOXP3+ levels in splenocytes derived from TD-PC, PBS, TD (SEQ ID NO: 25), PC and TD+PC treated mice and the untreated group, gating on CD4+ T cells are presented in FIG. 33B.
# [2] = tested on: splenocytes derived from CIA mice; assay: Cytokine secretion in-vitro by splenocytes of CIA mice (oral and s.c. TD-PC); type: in vivo; conditions: splenocyte culture fluids
# Procedure: Cytokines play a major role in synovial inflammation while the major ones are IL-17, TNFα and IL-1. Secretion of pro-inflammatory (TNFα, IL-1β, IL-17) and anti-inflammatory cytokines (IL-10) by splenocytes derived from CIA mice treated with TD-PC or PBS (control), in-vitro, was evaluated.
# Furthermore, TD-PC increased the level of anti-inflammatory cytokine IL-10 in a significant manner compared to control mice (p<0.0001; FIG. 28D and Table 3).
# [3] = tested on: splenocytes derived from CIA mice; assay: Cytokine secretion in-vitro by splenocytes of mice with established CIA; type: in vivo; conditions: splenocyte culture fluids
# Procedure: Secretion, in-vitro, of pro-inflammatory and anti-inflammatory cytokines by splenocytes derived from CIA mice treated with TD-PC, PBS, TD, PC, TD+PC or untreated mice was evaluated (FIGS. 32A-32D). The following cytokines secretions were examined: pro-inflammatory IL-1β (FIG. 32A), IL-17 (FIG. 32B), IL-6 (FIG. 32C), TNF-α (FIG. 32D) and anti-inflammatory IL-10 (FIG. 32E).
# THP-1 cells = assay: Shift of M1 polarized macrophages to M2 macrophages secreting IL-10; type: cell-based, human; conditions: 5 μg/ml for 72 hrs; in comparison to OVA-PC
# Procedure: The relative expression of the anti-inflammatory cytokine IL-10 was analyzed in human macrophages treated with TD-PC (TD-PC), and PC-Ovalbumin (OVA-PC). Specifically, THP-1 cells (a monocytic cell line established from human monocytic leukemia) were induced to differentiation into adherent macrophage-like phenotype (M0) by culturing the cells (10^5 cells/ml) in the presence of phorbol 12-myristate 13-acetate (PMA; 80 nM) and VD3 (100 nM). For inducing differentiation from M0 to M1 (M1 polarized macrophages) the cells were further incubated with LPS (1 μg/ml), IFNγ (20 ng/ml). For shifting from M1 to M2 macrophages (M2 polarized macrophages) the cells were washed and further incubated with IL-4 (10 ng/ml) and IL-13 (10 ng/ml) for 72 hours.
# In order to determine whether TD-PC, TD, PC or PC-OVA can induce a shift form M1 cells to M2 macrophages secreting anti-inflammatory cytokine IL-10, M1 polarized macrophages were incubated with each molecule or conjugate at 5 μg/ml for 72 hrs.
# [4] = tested on: female NZBxW/F1 lupus prone mice; assay: Proteinuria onset and immune complex deposits in lupus prone mice treated with TD-PC; type: in vivo; conditions: s.c., prophylactic from week 14
# Text: To examine the potential protective effect of TD-PC (SEQ ID NO: 25 conjugated to PC), female NZBxW/F1 lupus prone mice received subcutaneous injections (s.c) of the TD-PC conjugate, phosphorylcholine (PC), tuftsin derivative (SEQ ID NO: 25) or PBS (control) via a prophylactic protocol starting at week 14, before the clinical onset of lupus (n ¼ 15 per group).
# colon lysates = assay: Cytokine expression in colon lysates of colitis mice (immunoblot); type: in vivo
# Procedure: The expression of the proinflammatory cytokines (TNFα, IL-17, IL-113) and anti-inflammatory cytokine IL-10 was analyzed by immunoblot in colon lysates.
# [5] = 500 μg/0.1 ml oral daily, vs PBS
smiles,measurement,setting,value
"C[C@@H](O)[C@H](N)C(=O)N[C@@H](CCCCN)C(=O)N1CCC[C@H]1C(=O)N[C@@H](CCCNC(=N)N)C(=O)NCC(=O)N[C@@H](Cc1ccc(O)c(N=Nc2ccc(OP(=O)([O-])OCC[N+](C)(C)C)cc2)c1)C(=O)O [TD-PC, Thr-Lys-Pro-Arg-Gly-Tyr-PC] (H-TKPRG[X1]-OH)",daily disease activity index (DAI) score,"male C57BL/6 mice; 500 μg/0.1 ml oral daily, day 8, PBS 2.6 after 5 days",around 0.9
same,loss of weight,male C57BL/6 mice; [5],significantly low
same,rectal bleeding,male C57BL/6 mice; [5],significantly low
same,survival,male C57BL/6 mice; [5],significantly higher survival
same,colon length,male C57BL/6 mice; PBS mice five-six cm,eight
same,histological analysis of colon sections (H&E),male C57BL/6 mice; vs PBS,attenuated colon destruction
same,mean percentage of CD4+CD25+FOXP3+ Treg cells,[1],8.75%
same,IL-1β,[2]; oral,183 pg/mL
same,IL-10,[2]; oral,3605 pg/mL
same,IL-17,[2]; oral,505 pg/mL
same,TNFα,[2]; oral,633 pg/mL
same,IL-1β,[2]; s.c.,198 pg/mL
same,IL-10,[2]; s.c.,2917 pg/mL
same,IL-17,[2]; s.c.,497 pg/mL
same,TNFα,[2]; s.c.,621 pg/mL
same,mean IL-10 level,[3]; PBS 298,1745 pg/mL
same,mean IL-6 level,[3]; PBS 840,480 pg/mL
same,mean IL-1β level,[3]; PBS 883,320 pg/mL
same,mean TNF-α level,[3]; PBS 1073,342 pg/mL
same,mean IL-17 level,[3]; PBS 2170,1770 pg/mL
same,shift of M1 macrophages to M2 macrophages secreting IL-10,THP-1 cells,significant shift
same,immune complex (IC) deposits in the mesangium / nephritis class,[4],class-II nephritis
same,mice with proteinuria above 100 mg/dl,"[4]; age of 30 weeks, PBS 72%",21%
same,IL-1β expression in colon lysates,colon lysates,suppressed
same,IL-10 expression in colon lysates,colon lysates,Significant increased
same,IL-17 expression in colon lysates,colon lysates,suppressed
same,TNFα expression in colon lysates,colon lysates,suppressed
